This is an account of results in ChEMBL document CHEMBL1201862, “PubChem BioAssay data set” (2004).

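Cells were grown in 96-well plates and exposed to each compound for 48 hours at five concentrations; endpoints were interpolated linearly between bracketing concentrations, or set to the highest concentration if not reached. GI50: concentration for 50% inhibition of growth.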 Calls of active or inactive are those of the source. Rule as the data show it: active = GI50 up to about 1.1 µM and inactive = higher.

Common to all, as to assay: NCI anticancer screen, dose series, 48 h
For assay [1], the system named is A498.
The test system of assay [2] is A549.
For assay [3], the system named is HT-29.
Assay [4] concerns MCF7.
Assay [5] concerns MDA-MB-231.
Assay [6] relates to MDA-MB-435.
The subject of assay [7] is NCI-H460.
The subject of assay [8] is OVCAR-3.
In assay [9] the test system is OVCAR-8.
In assay [10] the test system is PC-3.
The test system of assay [11] is RXF 393.
For assay [12], the system named is SF-539.
Assay [13] deals with SK-MEL-5.
For assay [14], the system named is SK-OV-3.
In assay [15] the test system is SR.
Assay [16] relates to T47D.
Assay [17] deals with TK-10.
The subject of assay [18] is UACC-62.
For assay [19], the system named is LOX IMVI.
Assay [20] concerns SK-MEL-28.

For `Cc1ccc(/N=N/C(=N/NC(=O)c2cc(Cl)ccc2O)c2ccc(N(CCC#N)CCC#N)cc2C)cc1`, the GI50 in assay [1] was 12.1 µM (inactive); in [2], 28.6 µM (inactive); in assay [3], 14.6 µM (inactive); in assay [4] it was 24.7 µM (inactive); in assay [5], 25.3 µM (inactive); in assay [6] it was 34 µM (inactive). Further, the GI50 is 21.8 µM (inactive) in assay [7]; 11.1 µM (inactive) in [8]; 20.7 µM (inactive) in assay [9]; 24.3 µM (inactive) in assay [10]; 18.2 µM (inactive) in assay [11]; 18.5 µM (inactive) in assay [12]. In addition, the GI50 in [13] is 16.8 µM (inactive); in assay [14], 32.9 µM (inactive); in assay [15], 51.2 µM (inactive); in assay [16], 7.29 µM (inactive); in [17] it was 21.2 µM (inactive); in assay [18] it was 22.7 µM (inactive).

In the case of `CC(C)COP(=O)(OCC(C)C)C(NS(=O)(=O)c1ccccc1)(C(F)(F)F)C(F)(F)F`, the GI50 in [2] was 3.82 µM (inactive); in assay [3] it was 4.44 µM (inactive); in [19], 3.57 µM (inactive); in assay [4] it was 7.57 µM (inactive); in [5], 2.04 µM (inactive); in assay [6] it was 4.45 µM (inactive). Also, the GI50 in assay [8] was 4.82 µM (inactive); in assay [9], 6.46 µM (inactive); in assay [10] it was 3.68 µM (inactive); in assay [11], 3.96 µM (inactive); in [12], 8.34 µM (inactive); in [20], 13.6 µM (inactive). For the same molecule, the GI50 in [13] is 5.12 µM (inactive); in [14], 5.47 µM (inactive); in assay [15], 2.08 µM (inactive); in assay [16], 3.38 µM (inactive); in assay [17], 3.68 µM (inactive); in assay [18], 4.81 µM (inactive).

On to `NCCCN(CCCN)CCc1cn(C(=O)c2ccccc2)cn1`, for which the GI50 in assay [2] is 9.46 µM (inactive); in assay [3], 11.9 µM (inactive); in assay [19], 11.6 µM (inactive); in assay [4], 2.62 µM (inactive); in assay [5], 14.2 µM (inactive); in assay [6], 5.73 µM (inactive). For the same molecule, the GI50 in assay [7] is 15.7 µM (inactive); in assay [8], 2.69 µM (inactive); in [9] it was 16.9 µM (inactive); in assay [10], 8.63 µM (inactive); in [11], 2.97 µM (inactive); in assay [12] it was 13.2 µM (inactive). For the same molecule, the GI50 in assay [20] is 13.8 µM (inactive); in assay [13] it was 7 µM (inactive); in [14] it was 11.2 µM (inactive); in assay [15], 2.24 µM (inactive); in assay [16], 4.85 µM (inactive); in [17], 5.33 µM (inactive). Besides, the GI50 in assay [18] was 8.57 µM (inactive).

As for `COc1ccc2nc(-c3cccc(N(C)C)c3)cc(O)c2c1`, the GI50 in assay [2] is 0.147 µM (active); in assay [3], 0.198 µM (active); in [19], 0.334 µM (active); in [4] it was 0.413 µM (active); in [5], 0.594 µM (active); in assay [6], 0.0726 µM (active). Further, the GI50 in [7] is 0.348 µM (active); in [8], 0.169 µM (active); in assay [9], 0.186 µM (active); in assay [10] it was 0.362 µM (active); in assay [11], 0.173 µM (active); in [12], 0.151 µM (active). For the same molecule, the GI50 in [20] was 0.419 µM (active); in assay [13] it was 0.211 µM (active); in [14], 0.327 µM (active); in assay [15], 0.142 µM (active); in [16] it was > 10 µM (inactive); in assay [17], 4.74 µM (inactive). Besides, in [18], the GI50 was 0.252 µM (active).

As to `CC(C)(C)NCC(O)COc1cccc2[nH]c(C#N)cc12` (centres undefined) [CYANOPINDOLOL], the GI50 in assay [1] is 68.1 µM (inactive); in assay [2] it was > 100 µM (inactive); in assay [3] it was > 100 µM (inactive); in assay [4] it was > 100 µM (inactive); in assay [5], > 100 µM (inactive); in assay [6] it was > 100 µM (inactive). Further, the GI50 in assay [8], in [9], in assay [10], in assay [12], in [20] and in assay [13] was > 100 µM (inactive) each time. In addition, the GI50 in assay [14] is > 100 µM (inactive); in assay [15], > 100 µM (inactive); in assay [16], > 100 µM (inactive); in assay [17] it was 84.5 µM (inactive); in [18], > 100 µM (inactive).

For `CC1=NC(=Cc2cc(Br)cc(Br)c2)C(=O)N1n1c(-c2ccccc2)nc2ccccc2c1=O`, the GI50 in [2] is > 100 µM (inactive); in assay [3] it was > 100 µM (inactive); in assay [19] it was > 100 µM (inactive); in [4] it was > 100 µM (inactive); in assay [5] it was > 100 µM (inactive); in [6], 72.3 µM (inactive). Moreover, the GI50 in [7], in assay [8], in assay [9], in assay [10], in [11] and in [12] was > 100 µM (inactive) throughout. Also, the GI50 in assay [20] is > 100 µM (inactive); in assay [13] it was > 100 µM (inactive); in assay [14], > 100 µM (inactive); in assay [15], 55.2 µM (inactive); in [16], > 100 µM (inactive); in [17], > 100 µM (inactive). For the same molecule, the GI50 in [18] was > 100 µM (inactive).

On to `CNC(=O)C1CCCN1C(=O)C(Cc1c[nH]cn1)NC(=O)C1CCC(=O)N1` (centres undefined), for which the GI50 in assay [2], in assay [3], in assay [19], in assay [4], in assay [5] and in assay [6] was > 100 µM (inactive) each time. Further, the GI50 in [7], in [8], in assay [9], in [10], in assay [11] and in [20] was > 100 µM (inactive) in each case. Also, the GI50 in [13], in [14], in [15], in [16], in [17] and in assay [18] was > 100 µM (inactive) throughout.

`CN(C)c1c(C2CC(O)C(CO)O2)c(=O)c1=O` (centres undefined): the GI50 in assay [1], in assay [2], in assay [3], in assay [19], in [4] and in assay [5] was > 100 µM (inactive) throughout. In addition, the GI50 in [6], in assay [7], in assay [8], in assay [9], in assay [10] and in assay [12] was > 100 µM (inactive) each time. The GI50 in assay [20], in [14], in assay [15], in assay [16], in assay [17] and in assay [18] was > 100 µM (inactive) throughout.

As to `COC(CNC(=O)C(C)NC(=O)/C=C/c1ccccc1)OC` (centres undefined), the GI50 in [2], in [3], in assay [4], in assay [5], in assay [6] and in assay [7] was > 100 µM (inactive) throughout. The GI50 in [9], in assay [10], in assay [11], in assay [12], in [13] and in assay [14] was > 100 µM (inactive) each time. Further, the GI50 in [15], in assay [16], in [17] and in [18] was > 100 µM (inactive) each time.

`CCN(CC)Cc1nc(C2CCC([N+](=O)[O-])O2)no1` (centres undefined): the GI50 was 39.8 µM (inactive) in [2]; 17 µM (inactive) in assay [3]; 31.4 µM (inactive) in assay [19]; 15.6 µM (inactive) in assay [4]; 26.7 µM (inactive) in assay [5]; 18.1 µM (inactive) in assay [6]. For the same molecule, the GI50 in assay [7] was 20.5 µM (inactive); in [8], 23.8 µM (inactive); in assay [9] it was 30.1 µM (inactive); in assay [10] it was 27.3 µM (inactive); in assay [11] it was 31 µM (inactive); in assay [12], 28.2 µM (inactive). Also, the GI50 in assay [20] is 20.3 µM (inactive); in assay [13] it was 16.4 µM (inactive); in assay [14], > 100 µM (inactive); in assay [15] it was 28.2 µM (inactive); in [16] it was 27.2 µM (inactive); in assay [17] it was > 100 µM (inactive). In [18], the GI50 is 14.8 µM (inactive).

Consider `O=C(NN=C1CCCCC1)Nc1ccccc1Cl`, for which the GI50 is 81.7 µM (inactive) in assay [2]; 36.3 µM (inactive) in assay [3]; 53.7 µM (inactive) in assay [19]; 34.2 µM (inactive) in assay [4]; > 100 µM (inactive) in assay [5]; 16.6 µM (inactive) in assay [6]. In addition, the GI50 in assay [7] was 42.5 µM (inactive); in assay [8], 16.4 µM (inactive); in [9], 62.5 µM (inactive); in assay [10] it was > 100 µM (inactive); in [12], 32.5 µM (inactive); in assay [20], 79.3 µM (inactive). The GI50 in assay [13] was 27.3 µM (inactive); in assay [14] it was 55.6 µM (inactive); in assay [15] it was 22.5 µM (inactive); in assay [16], 29.5 µM (inactive); in assay [17] it was > 100 µM (inactive); in [18] it was 36.8 µM (inactive).
